The values below come from patent US11464770B2, “Anticancer pharmaceutical composition” (NATIONAL CANCER CENTER, priority 2016, dated 2022).

The series deals with zebrafish. The experiment in a line: Cardiotoxicity experiment using zebrafish (heart rate, lethality). Type of series: in vivo. The note with it: 10 uM, n = 10.

For `COc1ccc(CCN2CCC(Nc3nc4ccccc4n3Cc3ccc(F)cc3)CC2)cc1` [Astemizole, reference compound], the Lethality is on record as 0/10. Where the note is “mean”, the “Changes (%) in heart rate” value came out at 46.2%.
